Drawing on patent US10709692B2, “Isoxazolidine derived inhibitors of receptor interacting protein kinase 1 (RIPK1)” (Denali Therapeutics Inc., priority 2015, dated 2020), this text covers IC50 for 17 molecules.

“And” between values parts separate entries of the source, which are not always exact repeats. Equal values may be shown once.

The assay has as its target T1, receptor interacting protein kinase 1 (GST-hRIPK1 (8-327)) (Homo sapiens, UniProt Q13546).
T1 construct: GST-hRIPK1 (8-327) enzyme was generated by Proteros GmbH by Baculovirus expression system
T1 sequence (Q13546 8-327): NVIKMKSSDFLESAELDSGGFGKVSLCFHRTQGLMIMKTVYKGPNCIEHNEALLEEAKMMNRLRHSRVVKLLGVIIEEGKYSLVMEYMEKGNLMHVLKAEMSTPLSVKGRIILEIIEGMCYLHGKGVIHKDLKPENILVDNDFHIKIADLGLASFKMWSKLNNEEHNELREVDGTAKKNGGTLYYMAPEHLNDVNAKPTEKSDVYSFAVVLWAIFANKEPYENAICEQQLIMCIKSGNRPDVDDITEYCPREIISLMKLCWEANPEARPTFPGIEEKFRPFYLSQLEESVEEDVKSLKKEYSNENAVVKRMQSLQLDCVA
In words: Fluorescent Polarization Binding (FP Binding) assay. Conditions: 10 nM GST-hRIPK1 (8-327), 5 nM fluorescent-labeled ligand, 30 min at RT. The method, then:
Fluorescent Polarization Binding (FP Binding) assay (Berger S. B. et al. (2015) Cell Death Discovery, 1: 15009; Maki J. L. et al. (2012) Anal Biochem., 427(2): 164-174) was performed in polystyrene low volume 384-well black plate, at Room Temperature (RT) in a final volume of 10.1 μl/well using 10 nM of GST-hRIPK1 (8-327) enzyme and 5 nM of fluorescent-labeled ligand (14-(2-{[3-({2-{[4-(cyanomethyl)phenyl]amino}-6-[(5-cyclopropyl-1H-pyrazol-3-yl)amino]-4-pyrimidinyl}amino) propyl]amino}-2-oxoethyl)-16,16,18,18-tetramethyl-6,7,7a,8a,9,10,16,18-octahydrobenzo[2″3″]indolizino[8″, 0.7″:5′,6′]pyrano[3′,2′:3,4]pyrido[1,2-a]indol-5-ium-2-sulfonate.
Test compounds were serially diluted in DMSO at 100 fold final concentrations in the assay (1% DMSO final). In each well of a 384-well Plate were dispensed 0.1 μL of compound solution (or DMSO for controls) followed by 5 μL of GST-hRIPK1 (8-327) at twice the final concentrations in assay-buffer (50 mM HEPES pH 7.5, 10 mM NaCl, 50 mM MgCl2, 0.02% CHAPS, 0.5 mM DTT and 0.01% Pluronic F127). For negative control the enzyme addition was replaced by assay buffer only.
After addition of 5 μL of fluorescent-labeled ligand at twice the final concentrations in assay buffer, the plate was incubated at RT for 30 min. At the end, the binding was measured as FP value with the Envision (PerkinElmer) plate reader using filter for an excitation λ=531 nm FP and an emission λ=595 nm FP (S & P-pol).
Test compound inhibition was expressed as percent inhibition of internal assay controls. For concentration response curves, normalized data is fit and IC50 determined using XL-fit (IDBS) for Excel. IC50 were averaged to determine a mean value, for a minimum of two independent experiments.
Receptor interacting protein kinase 1 activity of exemplary compounds was determined according to the above general procedures.
Receptor interacting protein kinase 1 activity of certain compounds was determined according to the above general procedures.

With `Cn1c(C#N)ccc1C(=O)N1OCC[C@H]1c1ccc(F)cc1` [Compound 60, 5-[(3S)-3-(4-fluorophenyl)-1,2-oxazolidine-2-carbonyl]-1-methyl-1H-pyrrole-2-carbonitrile], the IC50 is less than 1 µM.

As for `CC(C(=O)N1OCC[C@H]1c1ccc(F)nc1)C1CC1` (single isomer, unassigned) [Compound 116], the 50% inhibitory concentration (IC50) was less than 1 µM. The figure for `CC(C)(C(=O)N1OCC[C@H]1c1cncc(C#N)c1)C(F)F` [Compound 200, (S)-5-(2-(3,3-difluoro-2,2-dimethylpropanoyl)isoxazolidin-3-yl)nicotinonitrile] is < 1 µM and 0.009 µM; for `CC1(C(=O)N2OCC[C@H]2c2ccc(F)cc2)CC1(F)F` (single isomer, unassigned) [Compound 114] it is less than 1 µM. For `CC(C(=O)N1OCCC1c1ccc(C#N)cc1)C(F)F` (single isomer, unassigned) [Compound 92] the value was less than 1 µM.

As to `O=C(N1OCC[C@H]1c1ccc(F)cc1)C1(C(F)(F)F)CC1` [Compound 37, (3S)-3-(4-Fluorophenyl)-2-[1-(trifluoromethyl)cyclo-propanecarbonyl]-1,2-oxazolidine], the half-maximal inhibitory concentration (IC50) was less than 1 µM.

`CC(C)(C)C(=O)N1OCC[C@H]1c1cncc(Cl)c1` [Compound 174, 1-[(3S)-3-(5-chloropyridin-3-yl)-1,2-oxazolidin-2-yl]-2,2-dimethylpropan-1-one]: the IC50 was less than 1 µM. Regarding `CC1(C(=O)N2OCC[C@H]2c2ccc(F)cc2)CN(CC(F)F)C1` [Compound 90, (3S)-2-[1-(2,2-difluoroethyl)-3-methylazetidine-3-carbonyl]-3-(4-fluorophenyl)-1,2-oxazolidine], the IC50 is less than 1 µM. `O=C(N1OCC[C@H]1c1ccc(F)cc1)C1(C(F)(F)F)CCC1` [Compound 39, (3S)-3-(4-Fluorophenyl)-2-[1-(trifluoromethyl)cyclo-butanecarbonyl]-1,2-oxazolidine]: the IC50 was less than 1 µM.

For the molecule `[2H]C([2H])([2H])C(C(=O)N1OCC[C@H]1c1ccc(F)nc1)(C([2H])([2H])[2H])C([2H])([2H])[2H]` [Compound 161, 1-[(3S)-3-(6-fluoropyridin-3-yl)-1,2-oxazolidin-2-yl]-2,2-bis(^2H3)methyI(^2H3) propan-1-one], the IC50 is less than 1 µM. `Cc1cnc([C@@H]2CCON2C(=O)C(C)(C)C)cn1` [Compound 138, 2,2-dimethyl-1-[(3S)-3-(5-methylpyrazin-2-yl)-1,2-oxazolidin-2-yl]propan-1-one] displayed an IC50 of less than 1 µM. The figure for `O=C([C@H]1C[C@H](O)C1)N1OCC[C@H]1c1ccccc1` [Compound 75, (1r,3r)-3-[(3S)-3-Phenyl-1,2-oxazolidine-2-carbonyl]cyclobutan-1-ol] is 1 to 10 µM; for `CC(C)(COC(F)(F)F)C(=O)N1OCC[C@H]1c1ccc(F)nc1` [Compound 164, 1-[(3S)-3-(6-fluoropyridin-3-yl)-1,2-oxazolidin-2-yl]-2,2-dimethyl-3-(trifluoromethoxy) propan-1-one] it is less than 1 µM; for `CC(C)(C)C(=O)N1OCC[C@@H]1c1ccc(Cl)cc1` [Compound 48, 1-[(3R)-3-(4-Chlorophenyl)-1,2-oxazolidin-2-yl]-2,2-dimethylpropan-1-one] it is more than 10 µM. `CC(C)(C)C(=O)N1OCC[C@H]1c1cc(C#N)ccn1` [Compound 192, 2-[(3S)-2-(2,2-dimethylpropanoyl)-1,2-oxazolidin-3-yl]pyridine-4-carbonitrile] registered an IC50 of less than 1 µM.

As to `Cc1noc(C)c1C(C)C(=O)N1OCC[C@H]1c1ccc(F)cc1` (single isomer, unassigned) [Compound 186], the IC50 lay in the range of 1 to 10 µM.

`CC(C)(C(=O)N1OCC[C@@H]1c1ccc(C#N)s1)C(F)F` [Compound 203, 5-[(3R)-2-(3,3-difluoro-2,2-dimethylpropanoyl)-1,2-oxazolidin-3-yl]thiophene-2-carbonitrile] had an IC50 of less than 1 µM.

For orientation: IC50 means the point on the concentration scale where inhibition reaches its midpoint. A higher IC50 goes with weaker potency in that assay.
